Literature values in patent US8071770B2, “Spirohydantoin aryl CGRP receptor antagonists” (Merck Sharp & Dohme Corp., priority 2005, dated 2011).
Ends that are not written are not given here.

Columns and labels:
facial blood flow [1] = details: marmoset, electrical stimulation of the trigeminal ganglion (Doods et al. 2000)
middle meningeal artery = details: rats, electrical stimulation of the dura mater, prior administration (Williamson et al. 1997)
facial blood flow [2] = details: rat, trigeminal ganglion stimulation (Escott et al. 1995)

Compound	effect on increase in facial blood flow (facial blood flow [1])	effect on increase of middle meningeal artery diameter (middle meningeal artery)	effect on increase of facial blood flow (facial blood flow [2])
NCCCC[C@H](NC(=O)[C@@H](Cc1cc(Br)c(O)c(Br)c1)NC(=O)N1CCC(N2Cc3ccccc3NC2=O)CC1)C(=O)N1CCN(c2ccncc2)CC1 [BIBN4096BS]	blocked	–	–
CGRP (8-37): a fragment of CGRP that lacks seven N-terminal amino acid residues; a peptide CGRP antagonist (VTHRLAGLLSRSGGVVKNNFVPTNVGSKAF; ends and bridges not checked; UniProt P06881 90-119, looked up, fragment)	–	blocked	inhibited
